Experimental data as given in US6867236B1, “Method of preventing of delaying the onset and progression of Alzheimer's disease and related disorders” (Duke University, priority 1994, dated 2005).

Test system: Alzheimer's disease
Assay: Case-control study of sibships at high risk: odds ratios for age-adjusted risk of Alzheimer's disease with prior drug exposure (Cox proportional hazards models)
Type: in vivo, human
Settings: for effect on risk of Alzheimer's disease in words: drug alone, orthogonal comparison with NSAIDs; for Odds ratio for risk of Alzheimer's disease: COL + AU, simple odds ratio
Method: Briefly, doubly affected sib pairs with Alzheimer's disease onset ages that differed by at least 3 years were studied, as were disease-discordant siblings whose unaffected sib(s) had survived at least 3 years beyond the onset age of the affected sib. Premorbid exposures to steroids, NSAIDs and other treatments were assessed for 186 subjects (91% response rate) by focused retrospective interviews using appropriate blinding and multiple informants when possible. Survival analysis methods were used to compare age-adjusted risk of Alzheimer's disease among sibs who had been exposed or unexposed, before onset, to glucocorticoids, aspirin, non-aspirin NSAIDs, and histamine H2 receptor blockers. […] The odds ratios for steroids, aspirin and non-aspirin NSAIDs fell within the related confidence interval from the prior twin study (Breitner, Neurology 44:227 (1994)).
Doubly affected sib pairs with Alzheimer's disease onset ages that differed by at least 3 years were studied, as were disease-discordant siblings whose unaffected sib(s) had survived at least 3 years beyond the onset age of the affected sib. Diagnoses and ages at onset of Alzheimer's disease were established by consideration of all relevant data, including extensive longitudinal observation, laboratory testing, and autopsy confirmation when available. Arthritis, peptic ulcer disease, and other non-neurological conditions were not considered when making these diagnoses. Subjects or their collateral informants received a letter, followed by a structured telephone interview, that investigated several common medical conditions (arthritis, diabetes, peptic ulcer disease) and treatments (glucocorticoids, nonsteroidal anti-inflammatories, including aspirin, acetaminophen, narcotic analgesics, insulin and oral hypoglycemic drugs, and histamine H2 blocking agents). The interview also sought timing and duration of exposure. The interviewers generally knew which subjects had Alzheimer's disease but were blinded to early- or late-affected status. The respondents were not made aware of the hypothesis under investigation. Collateral informants supplied data for the 107 subjects who had developed Alzheimer's disease. Collateral information was also sought for the remaining subjects; however, it is was necessary to rely on autobiographical data from 20 (26%).
Like dizygous twins, siblings share 50% of their genetic make-up on average. The relation of Alzheimer's disease onset and prior use of anti-inflammatory drugs was therefore studied in a sample of 186 sibs from 45 pedigrees ascertained for genetic linkage studies of late onset Alzheimer's disease (Pericak-Vance et al, Am. J. Hum. Genet. 48:1034 (1991)). The selected sibs were members of onset-discordant doubly affected pairs or disease-discordant pairs meeting criteria described above.
These differences and the association of Alzheimer's disease with the remaining exposures were investigated using Cox proportional hazards models (Cox, J. Roy. Stat. Soc. (Series B) 34:248-275 (1972)) in which the sample was first stratified by sibship. Table 2 reports odds ratios (o.r), the customary measure of risk associated with an exposure in case-control work. The o.r. is ordinarily calculated as the ratio of proportions exposed versus unexposed in the affected and unaffected groups; for conditions like Alzheimer's disease with age-dependent expression (Breitner et al, Am. J. Epidemiol. 128:536-548 (1988)), the o.r. is preferably calculated using proportional hazards or similar models which consider subjects' current age or age at death (i.e., censoring age), or age at onset of Alzheimer's disease. An o.r. of less than 1 implies reduced risk of disease with exposure. […] The apparent effect of both aspirin and NSAIDs increased with duration of exposure; the o.r. with use of NSAIDs for >1 yr. […]

[1] = Table 2, source of data COL + AU (collateral + autobiographical), stratified by sibship
[2] = Table 2, source of data COL only (collateral informants), stratified by sibship, exposure >=1 month
[3] = Table 3, orthogonal comparison, not stratified by sibship, no NSAIDs

CC(=O)Nc1ccc(O)cc1 [Acetaminophen]
Odds ratio for age-adjusted risk of Alzheimer's disease [1]: 0.104 | Odds ratio for age-adjusted risk of Alzheimer's disease [2]: 0.157 | Odds ratio for age-adjusted risk of Alzheimer's disease [3]: 0.192 | effect on risk of Alzheimer's disease in words: comparable but statistically inconclusive effect

CC(=O)Oc1ccccc1C(=O)O [Aspirin]
Odds ratio for risk of Alzheimer's disease (Table 2, exposed 1-12 mo.): 0.625 | Odds ratio for risk of Alzheimer's disease (Table 2, exposed >1 yr.): 0.369 | Odds ratio for age-adjusted risk of Alzheimer's disease [1]: 0.343 | Odds ratio for age-adjusted risk of Alzheimer's disease [2]: 0.349 | Odds ratio for age-adjusted risk of Alzheimer's disease [3]: 0.508 | effect on risk of Alzheimer's disease in words: weak but similar effect to NSAIDs | estimated odds ratios (o.r.), age-adjusted risk of Alzheimer's disease (sibs exposed or unexposed before onset): 0.35
